Experimental data as given in US20180022780A1, “STABILIZATION ADRENOMEDULLIN DERIVATIVES AND USE THEREOF” (priority 2014, published 2018).
Bridge positions count the residues as written; N and C are the ends. Square brackets hold non-standard residues; d marks the D form. Peptide text beside a SMILES is read from it. * marks the point of attachment. Palmitoyl = CCCCCCCCCCCCCCCC(=O)*; Dab = NCC[C@H](N)C(=O)O; Dap = NC[C@H](N)C(=O)O

Legend:
[1] = target: T1, human adrenomedullin-receptor (Homo sapiens, UniProt O60895+Q16602); assay: Tests on a recombinant adrenomedullin-receptor reporter cell (CHO, aequorin luminescence); format: cell-based; settings: Table 1, CHO cell line carrying the human adrenomedullin-receptor
T1 construct: expressed in transfected cells; host or cells: CHO (Chinese hamster ovary) recombinant reporter cell line with aequorin
T1 sequence (Q16602 23-461): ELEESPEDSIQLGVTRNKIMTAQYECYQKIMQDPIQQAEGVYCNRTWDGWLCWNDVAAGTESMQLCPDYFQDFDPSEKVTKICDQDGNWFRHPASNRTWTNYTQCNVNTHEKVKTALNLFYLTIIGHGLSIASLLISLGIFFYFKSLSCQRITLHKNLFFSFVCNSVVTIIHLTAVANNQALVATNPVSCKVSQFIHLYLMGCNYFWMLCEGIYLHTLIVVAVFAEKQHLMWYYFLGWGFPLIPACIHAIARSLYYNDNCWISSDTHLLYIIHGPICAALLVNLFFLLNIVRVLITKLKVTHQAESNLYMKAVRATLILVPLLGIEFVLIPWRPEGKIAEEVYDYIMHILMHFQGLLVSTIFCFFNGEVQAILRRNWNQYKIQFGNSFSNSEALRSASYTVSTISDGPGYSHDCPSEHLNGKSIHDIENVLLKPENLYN
T1 sequence (O60895 43-175): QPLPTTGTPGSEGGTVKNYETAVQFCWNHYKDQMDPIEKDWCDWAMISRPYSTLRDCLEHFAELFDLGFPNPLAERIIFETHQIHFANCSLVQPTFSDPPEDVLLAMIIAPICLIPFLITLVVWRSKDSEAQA
Method: Activation of the receptor by ligands was measured by aequorin luminescence. Construction of the cell line and measurement procedure has been described in detail [Wunder F., Rebmann A., Geerts A, and Kalthof B., Mol Pharmacol, 73, 1235-1243 (2008)]. In brief: Cells were seeded on opaque 384-well microtiter plates at a density of 4000 cells/well and were grown for 24 h. After removal of culture medium, cells were loaded for 3 h with 0.6 μg/ml coelenterazine in Ca^2+-free Tyrode solution (130 mM sodium chloride, 5 mM potassium chloride, 20 mM HEPES (4-(2-hydroxyethyl)-1-piperazineethanesulfonic acid), 1 mM magnesium chloride, and 4.8 mM sodium hydrogen carbonate, pH 7.4) supplemented with 0.2 mM 3-Isobutyl-1-methylxanthine (IBMX) in a cell culture incubator. Examples were added for 6 min in calcium^2+-free Tyrode solution containing 0.1% bovine serum albumin. Immediately before adding calcium^2+ to a final concentration of 3 mM measurement of the aequorin luminescence was started by use of a suitable luminometer. Luminescence was measured for 60 s. In a typical experiment compounds were tested in a concentration range of 1×10^−13 to 3×10^−6 M.

[2] = target: T2, CLR fused to EYFP and RAMP2 fused to ECFP (Homo sapiens, UniProt O60895+Q16602); assay: cAMP assay (CRE luciferase reporter, HEK-293 cells transiently co-transfected with CLR and RAMP2); format: cell-based; settings: Table 2, cAMP assay; HEK-293, CLR/RAMP2, CRE luciferase, 3 h stimulation, normalized to [G^14]ADM(14-52)
T2 construct: EYFP; ECFP; expressed in transfected cells; host or cells: HEK-293 cells, transient co-transfection
T2 sequence (Q16602 23-461): as the sequence (Q16602 23-461) above
T2 sequence (O60895 43-175): as the sequence (O60895 43-175) above
In short: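 HEK-293 cells transiently co-transfected with CLR-EYFP, RAMP2-ECFP and a CRE-luc2P luciferase reporter were stimulated with ligands (eight concentrations, triplicate) for 3 h at 37 °C. Luminescence was corrected to 5 µM forskolin, normalized to [G^14]ADM(14-52) standard, and fitted by non-linear regression to dose-response curves.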

SMILES: CCCCCCCCCCCCCCCC(=O)NCCCC[C@H](N)C(=O)NCC(=O)N[C@H]1CCCCNC(=O)CC[C@@H](C(=O)N[C@H](C(=O)N[C@H](C(=O)N[C@@H](CCC(N)=O)C(=O)N[C@@H](CCCCN)C(=O)N[C@@H](CC(C)C)C(=O)N[C@@H](C)C(=O)N[C@@H](Cc2c[nH]cn2)C(=O)N[C@@H](CCC(N)=O)C(=O)N[C@H](C(=O)N[C@@H](Cc2ccc(O)cc2)C(=O)N[C@@H](CCC(N)=O)C(=O)N[C@@H](Cc2ccccc2)C(=O)N[C@H](C(=O)N[C@@H](CC(=O)O)C(=O)N[C@@H](CCCCN)C(=O)N[C@@H](CC(=O)O)C(=O)N[C@@H](CCCCN)C(=O)N[C@@H](CC(=O)O)C(=O)N[C@@H](CC(N)=O)C(=O)N[C@H](C(=O)N[C@@H](C)C(=O)N2CCC[C@H]2C(=O)N[C@@H](CCCNC(=N)N)C(=O)N[C@@H](CO)C(=O)N[C@@H](CCCCN)C(=O)N[C@H](C(=O)N[C@@H](CO)C(=O)N2CCC[C@H]2C(=O)N[C@@H](CCC(N)=O)C(=O)NCC(=O)N[C@@H](Cc2ccc(O)cc2)C(N)=O)[C@@H](C)CC)C(C)C)[C@@H](C)O)[C@@H](C)CC)C(C)C)[C@@H](C)O)NC(=O)[C@H]([C@@H](C)O)NC(=O)CNC(=O)[C@H](Cc2ccccc2)NC(=O)[C@H](CCCNC(=N)N)NC1=O [Example 13, ((2S,5S,11S,14S,23S)-23-(2-((S)-2-amino-6-palmitamidohexanamido)acetamido)-5-benzyl-2-(3-guanidinopropyl)-11-((R)-1-hydroxyethyl)-3,6,9,12,17,24-hexaoxo-1,4,7,10,13,18-hexaazacyclotetracosane-14-carbonyl)-L-threonyl-ADM(22-52)] (H-K(Palmitoyl)GKRFGTETVQKLAHQIYQFTDKDKDNVAPRSKISPQGY-NH2; lactam 3-8)
- EC50 [1]: > 1 µM
- EC50 [2]: 0.156 µM

SMILES: CC[C@H](C)[C@H](NC(=O)[C@H](CCC(N)=O)NC(=O)[C@H](Cc1c[nH]cn1)NC(=O)[C@H](C)NC(=O)[C@H](CC(C)C)NC(=O)[C@H](CCCCN)NC(=O)[C@H](CCC(N)=O)NC(=O)[C@@H](NC(=O)[C@@H](NC(=O)[C@@H]1CCCC[C@H](NC(=O)CNC(=O)CN)C(=O)N[C@@H](CCCNC(=N)N)C(=O)N[C@@H](Cc2ccccc2)C(=O)NCC(=O)N[C@@H]([C@@H](C)O)C(=O)N1)[C@@H](C)O)C(C)C)C(=O)N[C@@H](Cc1ccc(O)cc1)C(=O)N[C@@H](CCC(N)=O)C(=O)N[C@@H](Cc1ccccc1)C(=O)N[C@H](C(=O)N[C@@H](CC(=O)O)C(=O)N[C@@H](CCCCN)C(=O)N[C@@H](CC(=O)O)C(=O)N[C@@H](CCCCN)C(=O)N[C@@H](CC(=O)O)C(=O)N[C@@H](CC(N)=O)C(=O)N[C@H](C(=O)N[C@@H](C)C(=O)N1CCC[C@H]1C(=O)N[C@@H](CCCNC(=N)N)C(=O)N[C@@H](CO)C(=O)N[C@@H](CCCCN)C(=O)N[C@H](C(=O)N[C@@H](CO)C(=O)N1CCC[C@H]1C(=O)N[C@@H](CCC(N)=O)C(=O)NCC(=O)N[C@@H](Cc1ccc(O)cc1)C(N)=O)[C@@H](C)CC)C(C)C)[C@@H](C)O [Example 17, ((2S,5S,11S,14S,19S)-19-(2-(2-aminoacetamido)acetamido)-5-benzyl-2-(3-guanidinopropyl)-11-((R)-1-hydroxyethyl)-3,6,9,12,20-pentaoxo-1,4,7,10,13-pentaazacycloicosane-14-carbonyl)-L threonyl-ADM(22-52)]
- EC50 [1]: > 1 µM
- EC50 [2]: > 1 µM

SMILES: CC[C@H](C)[C@H](NC(=O)[C@H](CCC(N)=O)NC(=O)[C@H](Cc1c[nH]cn1)NC(=O)[C@H](C)NC(=O)[C@H](CC(C)C)NC(=O)[C@H](CCCCN)NC(=O)[C@H](CCC(N)=O)NC(=O)[C@@H](NC(=O)[C@@H](NC(=O)[C@@H]1CNC(=O)C[C@H](NC(=O)CNC(=O)CN)C(=O)N[C@@H](CCCNC(=N)N)C(=O)N[C@@H](Cc2ccccc2)C(=O)NCC(=O)N[C@@H]([C@@H](C)O)C(=O)N1)[C@@H](C)O)C(C)C)C(=O)N[C@@H](Cc1ccc(O)cc1)C(=O)N[C@@H](CCC(N)=O)C(=O)N[C@@H](Cc1ccccc1)C(=O)N[C@H](C(=O)N[C@@H](CC(=O)O)C(=O)N[C@@H](CCCCN)C(=O)N[C@@H](CC(=O)O)C(=O)N[C@@H](CCCCN)C(=O)N[C@@H](CC(=O)O)C(=O)N[C@@H](CC(N)=O)C(=O)N[C@H](C(=O)N[C@@H](C)C(=O)N1CCC[C@H]1C(=O)N[C@@H](CCCNC(=N)N)C(=O)N[C@@H](CO)C(=O)N[C@@H](CCCCN)C(=O)N[C@H](C(=O)N[C@@H](CO)C(=O)N1CCC[C@H]1C(=O)N[C@@H](CCC(N)=O)C(=O)NCC(=O)N[C@@H](Cc1ccc(O)cc1)C(N)=O)[C@@H](C)CC)C(C)C)[C@@H](C)O [Example 26, ((3S,6S,12S,15S,18S)-18-(2-(2-aminoacetamido)acetamido)-12-benzyl-15-(3-guanidinopropyl)-6-((R)-1-hydroxyethyl)-5,8,11,14,17,20-hexaoxo-1,4,7,10,13,16-hexaazacycloicosane-3-carbonyl)-L-threonyl-ADM(22-52)] (H-GGDRFGT[Dap]TVQKLAHQIYQFTDKDKDNVAPRSKISPQGY-NH2; lactam 3-8)
- EC50 [1]: 0.032 µM
- EC50 [2]: > 1 µM

SMILES: CC[C@H](C)[C@H](NC(=O)[C@H](CCC(N)=O)NC(=O)[C@H](Cc1c[nH]cn1)NC(=O)[C@H](C)NC(=O)[C@H](CC(C)C)NC(=O)[C@H](CCCCN)NC(=O)[C@H](CCC(N)=O)NC(=O)[C@@H](NC(=O)[C@@H](NC(=O)[C@@H]1CC(=O)NCCCC[C@H](NC(=O)CNC(=O)CN)C(=O)N[C@@H](CCCNC(=N)N)C(=O)N[C@@H](Cc2ccccc2)C(=O)NCC(=O)N[C@@H]([C@@H](C)O)C(=O)N1)[C@@H](C)O)C(C)C)C(=O)N[C@@H](Cc1ccc(O)cc1)C(=O)N[C@@H](CCC(N)=O)C(=O)N[C@@H](Cc1ccccc1)C(=O)N[C@H](C(=O)N[C@@H](CC(=O)O)C(=O)N[C@@H](CCCCN)C(=O)N[C@@H](CC(=O)O)C(=O)N[C@@H](CCCCN)C(=O)N[C@@H](CC(=O)O)C(=O)N[C@@H](CC(N)=O)C(=O)N[C@H](C(=O)N[C@@H](C)C(=O)N1CCC[C@H]1C(=O)N[C@@H](CCCNC(=N)N)C(=O)N[C@@H](CO)C(=O)N[C@@H](CCCCN)C(=O)N[C@H](C(=O)N[C@@H](CO)C(=O)N1CCC[C@H]1C(=O)N[C@@H](CCC(N)=O)C(=O)NCC(=O)N[C@@H](Cc1ccc(O)cc1)C(N)=O)[C@@H](C)CC)C(C)C)[C@@H](C)O [Example 21, ((2S,5S,11S,14S,22S)-22-(2-(2-aminoacetamido)acetamido)-5-benzyl-2-(3-guanidinopropyl)-11-((R)-1-hydroxyethyl)-3,6,9,12,16,23-hexaoxo-1,4,7,10,13,17-hexaazacyclotricosane-14-carbonyl)-L-threonyl-ADM(22-52)] (H-GGKRFGTDTVQKLAHQIYQFTDKDKDNVAPRSKISPQGY-NH2; lactam 3-8)
- EC50 [1]: > 1 µM
- EC50 [2]: > 1 µM

SMILES: CC[C@H](C)[C@H](NC(=O)[C@H](CCC(N)=O)NC(=O)[C@H](Cc1c[nH]cn1)NC(=O)[C@H](C)NC(=O)[C@H](CC(C)C)NC(=O)[C@H](CCCCN)NC(=O)[C@H](CCC(N)=O)NC(=O)[C@@H](NC(=O)[C@@H](NC(=O)[C@@H]1CC(=O)NCC[C@H](NC(=O)CNC(=O)CN)C(=O)N[C@@H](CCCNC(=N)N)C(=O)N[C@@H](Cc2ccccc2)C(=O)NCC(=O)N[C@@H]([C@@H](C)O)C(=O)N1)[C@@H](C)O)C(C)C)C(=O)N[C@@H](Cc1ccc(O)cc1)C(=O)N[C@@H](CCC(N)=O)C(=O)N[C@@H](Cc1ccccc1)C(=O)N[C@H](C(=O)N[C@@H](CC(=O)O)C(=O)N[C@@H](CCCCN)C(=O)N[C@@H](CC(=O)O)C(=O)N[C@@H](CCCCN)C(=O)N[C@@H](CC(=O)O)C(=O)N[C@@H](CC(N)=O)C(=O)N[C@H](C(=O)N[C@@H](C)C(=O)N1CCC[C@H]1C(=O)N[C@@H](CCCNC(=N)N)C(=O)N[C@@H](CO)C(=O)N[C@@H](CCCCN)C(=O)N[C@H](C(=O)N[C@@H](CO)C(=O)N1CCC[C@H]1C(=O)N[C@@H](CCC(N)=O)C(=O)NCC(=O)N[C@@H](Cc1ccc(O)cc1)C(N)=O)[C@@H](C)CC)C(C)C)[C@@H](C)O [Example 5, ((2S,5S,11S,14S,20S)-20-(2-(2-aminoacetamido)acetamido)-5-benzyl-2-(3-guanidinopropyl)-11-((R)-1-hydroxyethyl)-3,6,9,12,16,21-hexaoxo-1,4,7,10,13,17-hexaazacyclohenicosane-14-carbonyl)-L-threonyl-ADM(22-52)] (H-GG[Dab]RFGTDTVQKLAHQIYQFTDKDKDNVAPRSKISPQGY-NH2; lactam 3-8)
- EC50 [1]: > 1 µM
- EC50 [2]: 0.112 µM
